Some test systems named below: K562; ACHN; SNB-19; NCI-H460; SR; UO-31; 786-0; HCT-15; Malme-3M; LOX IMVI; KM12; SK-MEL-2; UACC-62; RXF 393; TK-10; OVCAR-3; HCT-116; A498.
Common to all, as to test: NCI tumour cell line growth inhibition, 48 h

The values below come from ChEMBL document CHEMBL1201862, “PubChem BioAssay data set” (2004).

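Cells were grown in 96-well plates and exposed to each compound for 48 hours at five concentrations; endpoints were interpolated linearly between bracketing concentrations, or set to the highest concentration if not reached. Here, GI50 denotes the concentration required for 50% inhibition of growth.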 Activity calls are given as the source filed them. Rule as the data show it: active = GI50 up to about 1.1 µM and inactive = higher. A value given as a limit tells only on which side of the number the result lay.

For `Cn1cccc(C(=O)c2ccccc2)c1=O`, the GI50 with K562, in the assay with ACHN, with SNB-19, in the assay with NCI-H460, in the assay on SR and in the assay with UO-31 was > 100 µM (inactive) each time. For the same compound, the GI50 in the assay with 786-0 is > 100 µM (inactive); with HCT-15, above 100 µM; in the assay on Malme-3M, > 100 µM (inactive); with LOX IMVI, > 100 µM (inactive); in the assay on KM12 it was > 100 µM (inactive); in the assay with SK-MEL-2, > 100 µM (inactive). The GI50 with UACC-62, in the assay with RXF 393, with TK-10, in the assay with OVCAR-3 and in the assay with HCT-116 was > 100 µM (inactive) throughout.

`CCC/C=C\C=C\C1(NS(=O)(=O)c2ccc(C)cc2)CCC(C(C)(C)C)CC1` (configuration not stated): the GI50 in the assay on K562 was 12.5 µM (inactive); with ACHN it was 18.2 µM (inactive); in the assay with SNB-19, 35.5 µM (inactive); with NCI-H460 it was 14.6 µM (inactive); with SR, 3.15 µM (inactive); in the assay on UO-31, 23.7 µM (inactive). Moreover, the GI50 in the assay on 786-0 was 10.2 µM (inactive); in the assay on HCT-15, 17.5 µM; in the assay on Malme-3M, 14.9 µM (inactive); with KM12 it was 16.5 µM (inactive); in the assay with SK-MEL-2 it was 13.5 µM (inactive); in the assay on UACC-62, 21.3 µM (inactive). Further, the GI50 is 13.7 µM (inactive) in the assay with RXF 393; 24.9 µM (inactive) with TK-10; 7.01 µM (inactive) in the assay on OVCAR-3; 21.2 µM (inactive) in the assay with A498; 15.4 µM (inactive) with HCT-116.

For `Cc1c(/C=N/NC(=O)c2ccc(Cl)cc2)c(=O)n(-c2ccccc2)n1C`, the GI50 in the assay with K562 was > 100 µM (inactive); with ACHN, > 100 µM (inactive); in the assay on SNB-19 it was > 100 µM (inactive); in the assay on NCI-H460 it was > 100 µM (inactive); in the assay with SR, > 100 µM (inactive); with UO-31 it was 95.5 µM (inactive). Further, the GI50 in the assay on 786-0 is > 100 µM (inactive); with HCT-15, above 100 µM; in the assay on Malme-3M, > 100 µM (inactive); in the assay on LOX IMVI it was > 100 µM (inactive); in the assay on KM12 it was > 100 µM (inactive); with SK-MEL-2, > 100 µM (inactive). The GI50 in the assay on UACC-62, with RXF 393, in the assay on TK-10, in the assay on OVCAR-3 and in the assay on HCT-116 was > 100 µM (inactive) in each case.

In the case of `N#CCCC[Si]12OCCN(CCO1)CCO2`, the GI50 in the assay with K562, in the assay with ACHN, with SNB-19, in the assay with NCI-H460, with SR and with UO-31 was > 100 µM (inactive) in each case. In addition, the GI50 in the assay on 786-0, in the assay with Malme-3M, in the assay with KM12, with SK-MEL-2, with UACC-62 and in the assay with RXF 393 was > 100 µM (inactive) in each case. The GI50 in the assay with TK-10, in the assay with OVCAR-3, in the assay on A498 and in the assay on HCT-116 was > 100 µM (inactive) throughout.

In the case of `O=C1Cc2ccccc2CCc2ccsc21`, the GI50 in the assay on K562, in the assay with SNB-19, in the assay with NCI-H460, with SR, in the assay on UO-31 and in the assay with 786-0 was > 100 µM (inactive) each time. Also, the GI50 in the assay on HCT-15 is above 100 µM; in the assay on Malme-3M it was > 100 µM (inactive); in the assay with LOX IMVI, > 100 µM (inactive); in the assay with KM12, > 100 µM (inactive); in the assay on SK-MEL-2, > 100 µM (inactive); in the assay with RXF 393 it was > 100 µM (inactive). In addition, the GI50 in the assay with TK-10, with OVCAR-3, in the assay on A498 and in the assay on HCT-116 was > 100 µM (inactive) in each case.

Consider `CC(CN(C)C)/C(=N\Nc1ccccc1)c1ccccc1` (configuration not stated), for which the GI50 in the assay on K562 is 0.112 µM (active); in the assay with ACHN, 0.242 µM (active); with SNB-19, 3.72 µM (inactive); with NCI-H460, 0.171 µM (active); with SR it was 0.33 µM (active); in the assay with UO-31, 1.13 µM (inactive). For the same compound, the GI50 with 786-0 was 0.499 µM (active); with HCT-15, 0.0955 µM; in the assay on Malme-3M, 10.7 µM (inactive); in the assay on LOX IMVI, 0.0456 µM (active); in the assay on KM12 it was 0.0826 µM (active); in the assay with UACC-62, 0.0755 µM (active). For the same compound, the GI50 in the assay on RXF 393 was 11.4 µM (inactive); in the assay on TK-10 it was 1.02 µM (active); in the assay on OVCAR-3 it was 1.16 µM (inactive); in the assay on A498, 29.2 µM (inactive); with HCT-116, 0.415 µM (active).

Take `O=C(Nc1nc2ccc([N+](=O)[O-])cc2s1)C(=O)C(C(=O)c1ccncc1)C1OC(=O)c2ccccc21` (configuration not stated): the GI50 in the assay with K562 was > 100 µM (inactive); in the assay with ACHN it was > 100 µM (inactive); with SNB-19, > 100 µM (inactive); with SR, > 100 µM (inactive); in the assay with 786-0, > 100 µM (inactive); in the assay on HCT-15, above 100 µM. For the same compound, the GI50 with Malme-3M was > 100 µM (inactive); in the assay on KM12, > 100 µM (inactive); in the assay on UACC-62, > 100 µM (inactive); in the assay on RXF 393, > 100 µM (inactive); in the assay with OVCAR-3, > 100 µM (inactive); with A498, 48.6 µM (inactive). The GI50 with HCT-116 was > 100 µM (inactive).

Take `CC(=O)OCC1OC(OCc2ccccc2)C(Br)C(OC(C)=O)C1OC(C)=O` (configuration not stated): the GI50 with K562, in the assay with ACHN, with SNB-19, in the assay with NCI-H460, with SR and in the assay with 786-0 was > 100 µM (inactive) throughout. Besides, the GI50 was above 100 µM in the assay on HCT-15; > 100 µM (inactive) in the assay with Malme-3M; > 100 µM (inactive) in the assay on LOX IMVI; > 100 µM (inactive) with KM12; > 100 µM (inactive) in the assay on UACC-62; > 100 µM (inactive) with RXF 393. The GI50 with TK-10, in the assay with OVCAR-3, in the assay on A498 and in the assay on HCT-116 was > 100 µM (inactive) each time.

As for `CCN(CC)CCCCC1CCN(CC(=O)N2CC(C)C(=O)Nc3ccccc32)CC1` (configuration not stated), the GI50 in the assay on K562, with ACHN, in the assay with SNB-19, in the assay with NCI-H460, in the assay on SR and in the assay on UO-31 was > 100 µM (inactive) in each case. Moreover, the GI50 in the assay with 786-0 was > 100 µM (inactive); in the assay on HCT-15, above 100 µM; with Malme-3M, > 100 µM (inactive); in the assay on LOX IMVI it was > 100 µM (inactive); in the assay on UACC-62, > 100 µM (inactive); in the assay with OVCAR-3, > 100 µM (inactive). Moreover, the GI50 in the assay on A498 and in the assay on HCT-116 was > 100 µM (inactive) each time.

Consider `CCOC1(COP(=O)(OCc2ccccc2)OCc2ccccc2)COC(COP(=O)(OCc2ccccc2)OCc2ccccc2)(OCC)CO1` (configuration not stated), for which the GI50 in the assay with K562 was > 100 µM (inactive); with ACHN it was 7.82 µM (inactive); in the assay on SNB-19, > 100 µM (inactive); in the assay with NCI-H460, 95.7 µM (inactive); with SR it was > 100 µM (inactive); in the assay on 786-0, > 100 µM (inactive). Moreover, the GI50 in the assay with HCT-15 was above 100 µM; with Malme-3M it was > 100 µM (inactive); in the assay with LOX IMVI, > 100 µM (inactive); in the assay on KM12 it was > 100 µM (inactive); in the assay on SK-MEL-2, > 100 µM (inactive); in the assay on UACC-62 it was > 100 µM (inactive). The GI50 with RXF 393 is 4.33 µM (inactive); in the assay on TK-10, > 100 µM (inactive); in the assay on OVCAR-3, > 100 µM (inactive); with HCT-116, > 100 µM (inactive).

In the case of `CCOC(=O)C1=C(C)N(c2ccccc2)C2=C(C(=O)N(c3ccccc3)C2c2ccccc2)C1c1ccccc1` (configuration not stated), the GI50 in the assay with K562, in the assay on ACHN, in the assay with SNB-19, in the assay on NCI-H460, in the assay on SR and in the assay with UO-31 was > 100 µM (inactive) in each case. The GI50 in the assay on 786-0, in the assay on Malme-3M, with LOX IMVI, in the assay with KM12, in the assay on SK-MEL-2 and in the assay with UACC-62 was > 100 µM (inactive) each time. Besides, the GI50 in the assay on RXF 393, in the assay on TK-10, in the assay with OVCAR-3 and with HCT-116 was > 100 µM (inactive) each time.

In the case of `O=C1C=CC(=O)C2C1Cc1ccccc1C2c1ccccc1` (configuration not stated), the GI50 in the assay on K562 is 31.6 µM (inactive); with ACHN, 50.4 µM (inactive); with SNB-19, > 100 µM (inactive); in the assay with NCI-H460 it was 29.9 µM (inactive); with SR, 23.7 µM (inactive); with UO-31, 47.1 µM (inactive). The GI50 in the assay with 786-0 is 38.5 µM (inactive); in the assay with HCT-15 it was 36.6 µM; with Malme-3M, 59.4 µM (inactive); in the assay on LOX IMVI, 41.6 µM (inactive); in the assay on KM12 it was 51.9 µM (inactive); with SK-MEL-2, 27.8 µM (inactive). In addition, the GI50 in the assay on UACC-62 was > 100 µM (inactive); with TK-10, 74.1 µM (inactive); with OVCAR-3 it was 29.6 µM (inactive); in the assay on A498 it was 22.4 µM (inactive); in the assay with HCT-116, 37.6 µM (inactive).

Consider `Cc1ccc([N+]2=NC(c3ccc([N+](=O)[O-])cc3)=NN(c3ccccc3)C2)cc1`, for which the GI50 in the assay with K562 was 20.3 µM (inactive); with ACHN it was > 100 µM (inactive); in the assay on SNB-19, 75.3 µM (inactive); with NCI-H460 it was 41 µM (inactive); in the assay on SR it was 46.7 µM (inactive); with UO-31, 86.7 µM (inactive). The GI50 was > 100 µM (inactive) with 786-0; 38.6 µM in the assay with HCT-15; > 100 µM (inactive) with Malme-3M; 60 µM (inactive) with LOX IMVI; 51.9 µM (inactive) with RXF 393; > 100 µM (inactive) in the assay on TK-10. In addition, the GI50 is > 100 µM (inactive) in the assay on OVCAR-3, 95.9 µM (inactive) in the assay on A498 and 59.7 µM (inactive) with HCT-116.
